According to the PolyMetriX glass transition set:

glass transition temperature | Compound
41.00 °C | */C=C/c1cccc(OC(=O)CCCCCCCCC(=O)Oc2cccc(-c3nnc(*)s3)c2)c1 (repeat unit)
-27.00 °C | *CC#CCOC(=O)CCCCCCCCCCC(=O)O* (repeat unit)
195.00 °C | *CCCC(=O)Nc1ccc(Cc2ccc(NC(=O)CCCN3C(=O)c4ccc(C(=O)c5ccc6c(c5)C(=O)N(*)C6=O)cc4C3=O)cc2)cc1 (repeat unit)
132.00 °C | *CCCC(=O)Oc1ccc(OC(=O)c2ccc3c(c2)C(=O)N(*)C3=O)cc1 (repeat unit)
152.00 °C | *CCCC(C)(C)CCCNC(=O)c1ccc(C(=O)N*)cc1 (repeat unit)
153.00 °C | *CCCC(C)(C)CNC(=O)c1cccc(C(=O)N*)c1 (repeat unit)
155.00 °C | *CCCC(C)CN1C(=O)c2ccc(C(=O)Oc3ccc(-c4ccc(OC(=O)c5ccc6c(c5)C(=O)N(*)C6=O)cc4)cc3)cc2C1=O (repeat unit)
187.00 °C | *CCCCCC(=O)Nc1ccc(Cc2ccc(NC(=O)CCCCCN3C(=O)c4ccc(C(=O)c5ccc6c(c5)C(=O)N(*)C6=O)cc4C3=O)cc2)cc1 (repeat unit)
200.00 °C | *CCCCCC(=O)Nc1ccc(NC(=O)CCCCCN2C(=O)c3ccc(C(=O)c4ccc5c(c4)C(=O)N(*)C5=O)cc3C2=O)cc1 (repeat unit)
195.00 °C | *CCCCCC(=O)Nc1ccc(Oc2ccc(NC(=O)CCCCCN3C(=O)c4ccc(C(=O)c5ccc6c(c5)C(=O)N(*)C6=O)cc4C3=O)cc2)cc1 (repeat unit)
170.00 °C | *CCCCCC(=O)Nc1ccc(Oc2cccc(NC(=O)CCCCCN3C(=O)c4ccc(C(=O)c5ccc6c(c5)C(=O)N(*)C6=O)cc4C3=O)c2)cc1 (repeat unit)
122.00 °C | *CCCCCC(=O)Oc1ccc(C2(c3ccc(OC(=O)c4ccc5c(c4)C(=O)N(*)C5=O)cc3)CCCCC2)cc1 (repeat unit)
89.00 °C | *CCCCCC(=O)Oc1ccc(OC(=O)c2ccc3c(c2)C(=O)N(*)C3=O)cc1 (repeat unit)
113.00 °C | *CCCCCC(=O)Oc1ccc2ccc(OC(=O)c3ccc4c(c3)C(=O)N(*)C4=O)cc2c1 (repeat unit)
-1.00 °C | *CCCCCCCCCC(c1ccc(O)cc1)C(*)c1ccc(O)cc1C (repeat unit)
125.00 °C | *CCCCCCCCCCC(=O)Nc1ccc(NC(=O)CCCCCCCCCCN2C(=O)c3ccc(C(=O)c4ccc5c(c4)C(=O)N(*)C5=O)cc3C2=O)cc1 (repeat unit)
122.00 °C | *CCCCCCCCCCC(=O)Nc1ccc(Oc2ccc(Oc3ccc(NC(=O)CCCCCCCCCCN4C(=O)c5ccc(C(=O)c6ccc7c(c6)C(=O)N(*)C7=O)cc5C4=O)cc3)cc2)cc1 (repeat unit)
96.00 °C | *CCCCCCCCCCCC(=O)Oc1ccc(C2(c3ccc(OC(=O)c4ccc5c(c4)C(=O)N(*)C5=O)cc3)CCCCC2)cc1 (repeat unit)
62.00 °C | *CCCCCCCCCCCC(=O)Oc1ccc2cc(OC(=O)CCCCCCCCCCCn3c(=O)c4cc5c(=O)n(*)c(=O)c5cc4c3=O)ccc2c1 (repeat unit)

glass transition temperature | Compound
98.00 °C | *CCCCCCCCCCCC(=O)Oc1ccc2ccc(OC(=O)c3ccc4c(c3)C(=O)N(*)C4=O)cc2c1 (repeat unit)
4.00 °C | *CCCCCCCCCCCC(c1ccc(O)cc1)C(*)c1ccc(O)cc1C (repeat unit)
50.00 °C | *CCCCCCCCCCCCCCCCCCNC(=O)CCCCCCCCCCCCCCCCC(=O)N* (repeat unit)
56.50 °C | *CCCCCCCCCCCCCNC(=O)CCCCCCCCCCCC(=O)N* (repeat unit)
221.60 °C | *CCCCCCCCCCCCNC(=O)CCCCCCCCCCCCCCCCCCC(=O)N* (repeat unit)
39.00 °C | *CCCCCCCCCCCNC(=O)CCCCCCCCCCC(=O)N* (repeat unit)
45.00 °C | *CCCCCCCCCCNC(=O)CCCCCCCCCCCCCCC(=O)N* (repeat unit)
50.00 °C | *CCCCCCCCNC(=O)CCCCCCCCCCC(=O)N* (repeat unit)
142.50 °C | *CCCCCCN(C(=O)C(F)(F)C(F)(F)C(F)(F)C(=O)N(*)C(C)C)C(C)C (repeat unit)
7.50 °C | *CCCCCCN(C)C(=O)CCC(=O)N(*)C (repeat unit)
40.00 °C | *CCCCCCNC(=O)CCCCCCCCCCCCCCC(=O)N* (repeat unit)
166.00 °C | *CCCCCCOc1ccc(NC(=O)c2cc(C(=O)Nc3ccc(O*)cc3)cc(C(C)(C)C)c2)cc1 (repeat unit)
101.00 °C | *CCCN(C)c1ccc(C(=O)c2ccc(N(*)C)cc2)cc1 (repeat unit)
75.00 °C | *CCC[Si](C)(C)O[Si](C)(C)CCCN1C(=O)c2ccc(-c3ccc4c(c3)C(=O)N(*)C4=O)cc2C1=O (repeat unit)
40.50 °C | *CC[CH2][Sn]([CH3])([CH3])[CH2]CCOC(=O)C(CCCCCCOc1ccc(-c2ccc(OCc3ccc([N+](=O)[O-])cc3)cc2)cc1)C(=O)O* (repeat unit)
-71.00 °C | *CCOCCOC(=O)CCCCCCCCCCC(=O)O* (repeat unit)
96.00 °C | *CCc1ccc(CCNC(=O)CCCCCCCCCC(=O)N*)cc1 (repeat unit)
93.00 °C | *CCc1ccc(CCNC(=O)CCCCCCCCCCCCC(=O)N*)cc1 (repeat unit)
90.00 °C | *Cc1ccc(CNC(=O)CCCCCCCCCCCCCC(=O)N*)cc1 (repeat unit)

glass transition temperature | Compound
142.00 °C | *NC1CCC(CC2CCC(NC(=O)CCCCCCCCCCC(*)=O)CC2)CC1 (repeat unit)
195.00 °C | *Nc1ccc(Cc2ccc(NC(=O)c3cc(NC(=O)C(C(C)CC)N4C(=O)c5ccccc5C4=O)cc(C(*)=O)c3)cc2)cc1 (repeat unit)
195.00 °C | *Nc1ccc(Cc2ccc(NC(=O)c3cc(NC(=O)CCCCCN4C(=O)c5ccccc5C4=O)cc(C(*)=O)c3)cc2)cc1 (repeat unit)
285.00 °C | *Nc1ccc(Cc2ccc(NC(=O)c3cc(NC(=O)c4ccccc4)cc(C(*)=O)c3)cc2)cc1 (repeat unit)
231.70 °C | *Nc1ccc(NC(=O)c2cc(-c3ccc(C(=O)OCC)c(C(*)=O)c3)ccc2C(=O)OCC)cc1 (repeat unit)
321.00 °C | *Nc1ccc(NC(=O)c2cc(NC(=O)c3ccccc3)cc(C(*)=O)c2)cc1 (repeat unit)
-88.00 °C | *O[Si](C)(C)CCCCCCCC[Si](*)(C)C (repeat unit)
134.00 °C | *Oc1ccc(C2(c3ccc(OC(=O)CCCCCCCCC(*)=O)cc3)c3ccccc3Cc3ccccc32)cc1 (repeat unit)
117.00 °C | *Oc1ccc(C2(c3ccc(OC(=O)CCCCCCCCCCC(*)=O)cc3)c3ccccc3-c3ccccc32)cc1 (repeat unit)
150.00 °C | *Oc1ccc(NC(=O)CCCCCCCCCC(=O)Nc2ccc(*)cc2)cc1 (repeat unit)
252.00 °C | *Oc1ccc(NC(=O)c2cc(NC(=O)c3ccc(OC(C)=O)cc3)cc(C(=O)Nc3ccc(Oc4ccc(-c5ccc(*)cc5)cc4)cc3)c2)cc1 (repeat unit)
120.00 °C | *Oc1ccc(S(=O)(=O)N(C)CCCCN(C)S(=O)(=O)c2ccc(Oc3ccc(C(C)(C)c4ccc(*)cc4)cc3)cc2)cc1 (repeat unit)
110.00 °C | *Oc1cccc(NC(=O)CCCCCCCCCCC(=O)Nc2ccc(*)cc2)c1 (repeat unit)
160.00 °C | *c1ccc(NC(=O)CCCCCCCCCCC(=O)Nc2ccc(S(*)(=O)=O)cc2)cc1 (repeat unit)
140.00 °C | *c1ccc(OC(=O)CCCCCCCCCCCCCCCCCCCCC(=O)Oc2ccc(N3C(=O)c4ccc(-c5ccc6c(c5)C(=O)N(*)C6=O)cc4C3=O)cc2)cc1 (repeat unit)
270.00 °C | *c1ccc(Oc2ccc(NC(=O)c3cc(NC(=O)c4ccc(OC(C)=O)cc4)cc(C(=O)Nc4ccc(Oc5ccc(-c6nnc(*)o6)cc5)cc4)c3)cc2)cc1 (repeat unit)
123.7 °C | *c1ccc2c(c1)C(=O)N(c1ccc(Oc3ccc(N4C(=O)c5ccc(C(C)(C)CCCCCCCCC(*)(C)C)cc5C4=O)cc3)cc1)C2=O (repeat unit)
55.00 °C | *c1ncnc(N(CCCCCCCCCCN(*)c2ccccc2)c2ccccc2)n1 (repeat unit)
91.00 °C | *c1ncnc(N(CCCCN(*)c2ccccc2)c2ccccc2)n1 (repeat unit)

Compound | glass transition temperature
*/C(CC)=C(/*)c1ccccc1 (repeat unit) | 200.00 °C
*CCCC(=O)N* (repeat unit) | 62.80 °C
*CCCC(=O)O* (repeat unit) | 1.50 °C
*CCCC1CC(=O)N(*)C(=O)C1 (repeat unit) | 90.00 °C
*CCCCCCC(=O)N* (repeat unit) | 52.00 °C
*CCCCCCC(=O)O* (repeat unit) | -14.00 °C
*CCCCCCCCC(*)Cl (repeat unit) | -33.00 °C
*CCCCCCCCC(=O)N* (repeat unit) | 48.00 °C
*CCCCCCCCCCC(=O)N* (repeat unit) | 46.00 °C
*CCCCCCCCCCC(=O)O* (repeat unit) | -46.0 °C
*CCCCCCSS* (repeat unit) | -74.00 °C
*CCCCC[Si](*)(C)c1ccccc1 (repeat unit) | -10.40 °C
*CCCCP(C)(=O)CCCNC(=O)CCCCC(=O)N* (repeat unit) | 59.00 °C
*CCCN(*)C (repeat unit) | -37.50 °C
*CCCP(CCCCCCCC)CCCNC(=O)CCCCC(=O)N* (repeat unit) | 12.00 °C
*CCC[Si](*)(C)CCC[Si](C)(C)C (repeat unit) | -46.00 °C
*O[Si](C)(C)CCCCCC[Si](*)(C)C (repeat unit) | -90.00 °C
